In patent US10259807B2, “1-(piperazin-1-yl)-2-([1,2,4]triazol-1-yl)-ethanone derivatives” (Idorsia Pharmaceuticals Ltd., priority 2013, dated 2019):

Tests used:
hERG K channel = target: T1, hERG K channel (Homo sapiens, UniProt Q12809); test: hERG Q-Patch assay; format: cell-based; conditions: CHO cells expressing hERG, K+ tail current 3 min after application, mean of two or three experiments
T1 construct: host or cells: CHO
Experimental: B) hERG Q-Patch assay: Compounds are evaluated for block of the hERG K channel using CHO cells stably expressing the hERG gene (accession number U04270, bSys, Witterswil. Switzerland) and the Patch robotic platform (Sophion, Ballerup, Denmark) in single-cell mode at room temperature. […] When the cells are ˜80% confluent (every 2-3 days), they are either split for further culture or used for electrophysiology. […] Cells are kept in suspension medium at 32-35° C. in the QPatch robot until use, at which time aliquots are transferred to the extracellular solution (in mM: NaCl 150; KCl 4; CaCl2 1.2; MgCl2 1; HEPES 10; pH 7.4 with NaOH) containing 0.3% v/v DMSO and applied to the test plates. K^+ currents are measured with the patch-voltage-clamp technique in the whole-cell configuration with the internal solution (in […]: KCl, 140; NaCl, 10; MgCl2, 1; HEPES, 10; EGTA, 5; pH=7.2 with KOH). […] K^+tail currents are produced from a holding voltage of −80 mV by a 500-ms depolarization to +20 mV followed by a 500-ms repolarization to −40 mV; tail current amplitudes are measured at the end of the repolarization to −40 mV. The pulse pattern is repeated every 10 sec during the experiment, baseline K^+ current is measured after 3 min in extracellular solution, test-solution containing compound is then applied, and K^+ current in presence of compound is measured 3 minutes after application to the cells.

human CXCR3A = target: T2, human CXCR3A (Homo sapiens, UniProt P49682); test: FLIPR assay (CXCL10-induced calcium signal in CHO-K1 cells); format: cell-based; conditions: CHO-K1 cells expressing human CXCR3A coupled to Galpha(16); CXCL10 agonist 20 nM; mean values
T2 construct: expressed in transfected cells; host or cells: CHO-K1
T2 sequence (P49682 1-368): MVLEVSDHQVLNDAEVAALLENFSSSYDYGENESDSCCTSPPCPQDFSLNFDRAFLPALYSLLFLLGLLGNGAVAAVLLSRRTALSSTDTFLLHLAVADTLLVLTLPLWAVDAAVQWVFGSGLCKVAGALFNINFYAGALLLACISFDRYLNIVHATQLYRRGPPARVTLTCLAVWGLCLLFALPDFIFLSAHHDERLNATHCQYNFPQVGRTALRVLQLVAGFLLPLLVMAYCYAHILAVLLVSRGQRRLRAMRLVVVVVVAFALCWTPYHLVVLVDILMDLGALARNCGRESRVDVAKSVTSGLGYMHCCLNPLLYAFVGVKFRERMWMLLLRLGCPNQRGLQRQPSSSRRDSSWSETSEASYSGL
Experimental: A) FLIPR assay: The bioactivity of compounds is tested in a fluorometric imaging plate reader (FLIPR: Molecular Devices) using engineered CHO-K1 cells expressing the human CXCR3A (GenBank: AY242128) coupled to a G protein (Galpha(16)). Cells are plated the day prior to bioassay in F12 medium supplemented with 10% FBS and G418 and hygromycin antibiotics to maintain recombinant selection. […] Cells are washed free of excess dye and 60 microliter of wash buffer is added. Stock solutions of test compounds are made up at a concentration of 10 mM in DMSO, and serially diluted in dilution buffer to concentrations required for inhibition dose response curves. After a 10 minute incubation period at 37° C., 10 microliters of each compound dilution are transferred from a compound plate to the plate containing the recombinant cells in the FLIPR instrument according to the manufacturer's instructions. Following basal readings, 10 microliter CXCL10 agonist at a concentration of 20 nM (from Peprotech) is added, again using the FLIPR instrument. Changes in fluorescence are monitored before and after addition of the test compounds. Emission peak values above base level after CXCL10 addition are exported after base line subtraction. The program XLfit is used to fit the data to a single site dose response curve and to calculate IC50 values. The calculated IC50 values may fluctuate depending on the daily assay performance. Fluctuations of this kind are known to those skilled in the art.

T1 sequence (Q12809 whole entry): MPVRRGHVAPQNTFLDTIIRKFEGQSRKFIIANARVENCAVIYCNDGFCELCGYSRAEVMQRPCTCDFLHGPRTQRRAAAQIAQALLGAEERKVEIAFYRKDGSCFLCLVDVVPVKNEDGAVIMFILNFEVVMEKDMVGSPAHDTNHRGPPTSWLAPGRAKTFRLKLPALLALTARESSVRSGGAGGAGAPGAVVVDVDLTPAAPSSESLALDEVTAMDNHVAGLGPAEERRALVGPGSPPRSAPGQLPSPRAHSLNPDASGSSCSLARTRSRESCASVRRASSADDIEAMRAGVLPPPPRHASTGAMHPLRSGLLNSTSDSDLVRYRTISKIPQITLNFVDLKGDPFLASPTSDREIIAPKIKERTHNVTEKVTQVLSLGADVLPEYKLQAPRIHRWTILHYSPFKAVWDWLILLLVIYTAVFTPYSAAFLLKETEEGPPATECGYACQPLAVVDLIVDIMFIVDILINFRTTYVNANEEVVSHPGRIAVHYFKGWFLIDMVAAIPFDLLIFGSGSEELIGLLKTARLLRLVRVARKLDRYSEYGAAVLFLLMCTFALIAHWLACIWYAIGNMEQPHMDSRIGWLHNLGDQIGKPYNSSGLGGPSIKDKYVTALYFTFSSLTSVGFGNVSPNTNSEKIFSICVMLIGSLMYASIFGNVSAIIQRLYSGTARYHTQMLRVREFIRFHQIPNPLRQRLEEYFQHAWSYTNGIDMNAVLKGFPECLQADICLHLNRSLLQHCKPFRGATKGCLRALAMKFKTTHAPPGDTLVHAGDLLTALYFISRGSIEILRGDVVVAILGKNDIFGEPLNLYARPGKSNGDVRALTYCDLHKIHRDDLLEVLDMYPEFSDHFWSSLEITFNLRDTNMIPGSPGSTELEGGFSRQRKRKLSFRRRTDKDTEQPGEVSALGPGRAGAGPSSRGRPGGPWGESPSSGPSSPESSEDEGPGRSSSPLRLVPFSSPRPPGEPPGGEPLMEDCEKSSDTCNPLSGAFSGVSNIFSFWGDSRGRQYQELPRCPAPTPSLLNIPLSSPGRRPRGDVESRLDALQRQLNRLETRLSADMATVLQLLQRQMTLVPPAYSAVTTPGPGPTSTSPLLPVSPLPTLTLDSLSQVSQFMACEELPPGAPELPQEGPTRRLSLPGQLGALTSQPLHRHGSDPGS

Cc1nc(C)n(CC(=O)N2CCN(c3sc(C(F)(F)F)nc3-c3ccc4c(c3)OCO4)C[C@H]2C)n1 [Example 13, 1-[(R)-4-(4-Benzo[1,3]dioxol-5-yl-2-trifluoromethyl-thiazol-5-yl)-2-methyl-piperazin-1-yl]-2-(3,5-dimethyl-[1,2,4]triazol-1-yl)-ethanone]
% block (hERG K channel; concentration 300 nM): 9% | % block (hERG K channel; concentration 3000 nM): 39% | IC50 (human CXCR3A): 0.076 µM

Cc1nc(C)n(CC(=O)N2CCN(c3sc(C(F)(F)F)nc3-c3ccc4c(c3)OCCO4)C[C@H]2C)n1 [Example 14, 1-{(R)-4-[4-(2,3-Dihydro-benzo[1,4]dioxin-6-yl)-2-trifluoromethyl-thiazol-5-yl]-2-methyl-piperazin-1-yl}-2-(3,5-dimethyl-[1,2,4]triazol-1-yl)-ethanone]
% block (hERG K channel; concentration 300 nM): 5% | % block (hERG K channel; concentration 3000 nM): 14% | IC50 (human CXCR3A): 0.031 µM

CCOc1ncc(-c2nc(C(F)(F)F)sc2N2CCN(C(=O)Cn3nc(CN(C)C)nc3C)[C@H](C)C2)cn1 [Example 17, 2-(3-Dimethylaminomethyl-5-methyl-[1,2,4]triazol-1-yl)-1-{(R)-4-[4-(2-ethoxy-pyrimidin-5-yl)-2-trifluoromethyl-thiazol-5-yl]-2-methyl-piperazin-1-yl}-ethanone]
% block (hERG K channel; concentration 300 nM): 13% | % block (hERG K channel; concentration 3000 nM): 26% | IC50 (human CXCR3A): 0.02 µM

Cc1nc(C)n(CC(=O)N2CCN(c3sc(C(F)(F)F)nc3-c3ccc4c(c3)CCCO4)C[C@H]2C)n1 [Example 21, 1-[(R)-4-(4-Chroman-6-yl-2-trifluoromethyl-thiazol-5-yl)-2-methyl-piperazin-1-yl]-2-(3,5-dimethyl-[1,2,4]triazol-1-yl)-ethanone]
% block (hERG K channel; concentration 300 nM): 1% | % block (hERG K channel; concentration 3000 nM): 12% | IC50 (human CXCR3A): 0.0047 µM

COCCOc1ncc(-c2nc(C(F)(F)F)sc2N2CCN(C(=O)Cn3nc(C)nc3C)[C@H](C)C2)cn1 [Example 25, 2-(3,5-Dimethyl-[1,2,4]triazol-1-yl)-1-((R)-4-{4-[2-(2-methoxy-ethoxy)-pyrimidin-5-yl]-2-trifluoromethyl-thiazol-5-yl}-2-methyl-piperazin-1-yl)-ethanone]
% block (hERG K channel; concentration 300 nM): −1% | % block (hERG K channel; concentration 3000 nM): 1% | IC50 (human CXCR3A): 0.0068 µM

Cc1nc(C)n(CC(=O)N2CCN(c3sc(C(F)(F)F)nc3-c3cnc(OCCN(C)C)nc3)C[C@H]2C)n1 [Example 26, 1-((R)-4-{4-[2-(2-Dimethylamino-ethoxy)-pyrimidin-5-yl]-2-trifluoromethyl-thiazol-5-yl}-2-methyl-piperazin-1-yl)-2-(3,5-dimethyl-[1,2,4]triazol-1-yl)-ethanone]
% block (hERG K channel; concentration 300 nM): −1% | % block (hERG K channel; concentration 3000 nM): −8% | IC50 (human CXCR3A): 0.041 µM

Cc1nc(C)n(CC(=O)N2CCN(c3sc(C(F)(F)F)nc3-c3cnc(OCC(F)(F)F)nc3)C[C@H]2C)n1 [Example 28, 2-(3,5-Dimethyl-[1,2,4]triazol-1-yl)-1-((R)-2-methyl-4-{4-[2-(2,2,2-trifluoro-ethoxy)-pyrimidin-5-yl]-2-trifluoromethyl-thiazol-5-yl}-piperazin-1-yl)-ethanone]
% block (hERG K channel; concentration 300 nM): 0% | % block (hERG K channel; concentration 3000 nM): 6% | IC50 (human CXCR3A): 0.0028 µM

CCOc1ncc(-c2nc(C(F)(F)F)sc2N2CCN(C(=O)Cn3nc(C)nc3C)[C@H](C)C2)c(OCC)n1 [Example 29, 1-{(R)-4-[4-(2,4-Diethoxy-pyrimidin-5-yl)-2-trifluoromethyl-thiazol-5-yl]-2-methyl-piperazin-1-yl}-2-(3,5-dimethyl-[1,2,4]triazol-1-yl)-ethanone]
% block (hERG K channel; concentration 300 nM): −2% | % block (hERG K channel; concentration 3000 nM): 0% | IC50 (human CXCR3A): 0.0045 µM

Cc1nc(C)n(CC(=O)N2CCN(c3sc(C(F)(F)F)nc3-c3cnc(OC4COC4)nc3)C[C@H]2C)n1 [Example 30, 2-(3,5-Dimethyl-[1,2,4]triazol-1-yl)-1-((R)-2-methyl-4-{4-[2-(oxetan-3-yloxy)-pyrimidin-5-yl]-2-trifluoromethyl-thiazol-5-yl}-piperazin-1-yl)-ethanone]
% block (hERG K channel; concentration 300 nM): 1% | % block (hERG K channel; concentration 3000 nM): 6% | IC50 (human CXCR3A): 0.022 µM

CCOc1ccc(-c2nc(C(F)(F)F)sc2N2CCN(C(=O)Cn3nc(C)nc3C)[C@H](C)C2)cc1 [Example 31, 2-(3,5-Dimethyl-[1,2,4]triazol-1-yl)-1-{(R)-4-[4-(4-ethoxy-phenyl)-2-trifluoromethyl-thiazol-5-yl]-2-methyl-piperazin-1-yl}-ethanone]
% block (hERG K channel; concentration 300 nM): 6% | % block (hERG K channel; concentration 3000 nM): 14% | IC50 (human CXCR3A): 0.01 µM

CCOc1ncc(-c2nc(C(F)(F)F)sc2N2CCN(C(=O)Cn3nc(C)nc3C)[C@@H](C)C2)cn1 [Example 34, 2-(3,5-Dimethyl-[1,2,4]triazol-1-yl)-1-{(S)-4-[4-(2-ethoxy-pyrimidin-5-yl)-2-trifluoromethyl-thiazol-5-yl]-2-methyl-piperazin-1-yl}-ethanone]
% block (hERG K channel; concentration 300 nM): 3% | % block (hERG K channel; concentration 3000 nM): 4% | IC50 (human CXCR3A): 0.0057 µM

CCOc1ncc(-c2nc(C(F)(F)F)sc2N2CCN(C(=O)Cn3nc(C)nc3C)CC2)cn1 [Example 35, 2-(3,5-Dimethyl-[1,2,4]triazol-1-yl)-1-{4-[4-(2-ethoxy-pyrimidin-5-yl)-2-trifluoromethyl-thiazol-5-yl]-piperazin-1-yl}-ethanone]
% block (hERG K channel; concentration 300 nM): 2% | % block (hERG K channel; concentration 3000 nM): 4% | IC50 (human CXCR3A): 0.0046 µM

Cc1nc(C)n(CC(=O)N2CCN(c3sc(C(F)(F)F)nc3-c3cnc(N4CCN(C)CC4)nc3)C[C@H]2C)n1 [Example 37, 2-(3,5-Dimethyl-[1,2,4]triazol-1-yl)-1-((R)-2-methyl-4-{4-[2-(4-methyl-piperazin-1-yl)-pyrimidin-5-yl]-2-trifluoromethyl-thiazol-5-yl}-piperazin-1-yl)-ethanone]
% block (hERG K channel; concentration 300 nM): 2% | % block (hERG K channel; concentration 3000 nM): 4% | IC50 (human CXCR3A): 0.0048 µM

Cc1nc(C)n(CC(=O)N2CCN(c3sc(C(F)(F)F)nc3-c3cnc4c(c3)CCCO4)C[C@H]2C)n1 [Example 39, 1-{(R)-4-[4-(3,4-Dihydro-2H-pyrano[2,3-b]pyridin-6-yl)-2-trifluoromethyl-thiazol-5-yl]-2-methyl-piperazin-1-yl}-2-(3,5-dimethyl-[1,2,4]triazol-1-yl)-ethanone]
% block (hERG K channel; concentration 300 nM): 3% | % block (hERG K channel; concentration 3000 nM): 15% | IC50 (human CXCR3A): 0.031 µM

Cc1nc(C)n(CC(=O)N2CCN(c3sc(C(F)(F)F)nc3-c3ccc4c(c3)CCO4)C[C@H]2C)n1 [Example 40, 1-{(R)-4-[4-(2,3-Dihydro-benzofuran-5-yl)-2-trifluoromethyl-thiazol-5-yl]-2-methyl-piperazin-1-yl}-2-(3,5-dimethyl-[1,2,4]triazol-1-yl)-ethanone]
% block (hERG K channel; concentration 300 nM): 1% | % block (hERG K channel; concentration 3000 nM): 25% | IC50 (human CXCR3A): 0.022 µM

Cc1nc(C)n(CC(=O)N2CCN(c3sc(C(F)(F)F)nc3-c3cnc(CCN(C)C)nc3)C[C@H]2C)n1 [Example 42, 1-((R)-4-{4-[2-(2-Dimethylamino-ethyl)-pyrimidin-5-yl]-2-trifluoromethyl-thiazol-5-yl}-2-methyl-piperazin-1-yl)-2-(3,5-dimethyl-[1,2,4]triazol-1-yl)-ethanone]
% block (hERG K channel; concentration 300 nM): −3% | % block (hERG K channel; concentration 3000 nM): 0% | IC50 (human CXCR3A): 0.091 µM

Cc1nc(CO)nn1CC(=O)N1CCN(c2sc(C(F)(F)F)nc2-c2cnc(C(F)(F)F)nc2)C[C@H]1C [Example 44, 2-(3-Hydroxymethyl-5-methyl-[1,2,4]triazol-1-yl)-1-{(R)-2-methyl-4-[2-trifluoromethyl-4-(2-trifluoromethyl-pyrimidin-5-yl)-thiazol-5-yl]-piperazin-1-yl}-ethanone]
% block (hERG K channel; concentration 300 nM): −3% | % block (hERG K channel; concentration 3000 nM): −6% | IC50 (human CXCR3A): 0.0051 µM
